What all share (experiment): Bliss excess, mean over the matrix (fraction); higher = more synergy
The test system of experiment [1] is CAL-39 (Other Solid Carcinomas). Summed up: (§1)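 Bliss excess equals the observed combination effect minus the expected value EA + EB − EA·EB, where EA and EB are the effects of each agent alone. Combination Emax is the second-highest inhibition within the matrix. Inhibition was scaled from CellTiter-Glo 2.0 luminescence, with 0 set by vehicle wells and 1 by blank wells, after 72 hours of two-drug dosing of cells plated in 1536-well plates.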

A further experiment has as its system CS1 (Chondrosarcoma). Summed up:
as §1

Experiment [2] relates to D-283MED (Other Solid Carcinomas). In a few lines:
as §1

Experiment [3] deals with DOK (Oral Cavity Carcinoma). In a few lines: as §1
Experiment [4] relates to ETK-1 (Biliary Tract Carcinoma). Summed up:
as §1

Experiment [5] concerns GDM-1 (Acute Myeloid Leukemia). Summed up: as §1
In experiment [6] the test system is HCC-827 (Lung Adenocarcinoma). Summed up: as §1
The test system of experiment [7] is HCC1143 (Breast Carcinoma). In a few lines: as §1
In another experiment the test system is HCC38 (Breast Carcinoma). Summed up:
as §1

In experiment [8] the test system is HLE (Hepatocellular Carcinoma). In a few lines: as §1
In experiment [9] the test system is HOP-92 (Non-Small Cell Lung Carcinoma). Summed up: as §1
A further experiment concerns MCF7 (Breast Carcinoma). Summed up: as §1
Experiment [10] deals with MEG-01 (Chronic Myelogenous Leukemia). In a few lines:
as §1

The test system of experiment [11] is NCI-H1688 (Small Cell Lung Carcinoma). Summed up: as §1
Experiment [12] deals with P31-FUJ (Acute Myeloid Leukemia). Summed up: as §1
The subject of experiment [13] is RCC10RGB (Kidney Carcinoma). Summed up:
as §1

The next experiment deals with SK-MEL-1 (Melanoma). In a few lines: as §1
Experiment [14] concerns SK-UT-1 (Other Solid Carcinomas). Summed up:
as §1

Experiment [15] has as its system SNG-M (Endometrial Carcinoma). In a few lines:
as §1

The next experiment concerns Saos-2 (Osteosarcoma). In a few lines: as §1

Molecules are shown by their SMILES.

For the compound `CC1(C)CCC(CN2CCN(c3ccc(C(=O)NS(=O)(=O)c4ccc(NCC5CCOCC5)c([N+](=O)[O-])c4)c(Oc4cnc5[nH]ccc5c4)c3)CC2)=C(c2ccc(Cl)cc2)C1` [Venetoclax] + CCN(CCO)CCCOc1ccc2c(Nc3cc(CC(=O)Nc4cccc(F)c4)[nH]n3)ncnc2c1 [AZD2811] (first compound max 1 µM, 7x7, partner max 1 µM), the Bliss excess in experiment [1] was -0.0113; in the experiment with CS1 (Chondrosarcoma), -0.0259; in experiment [2] it was 0.0579; in [3] it was -0.0249; in experiment [4] it was -0.0793; in experiment [5], 0.0676. In addition, the Bliss excess in experiment [6] is -0.015; in [7], 0.0005; in the experiment with HCC38 (Breast Carcinoma), 0.0347; in experiment [8], 0.005; in experiment [9] it was 0.0135; with MCF7 (Breast Carcinoma), 0.0142. The Bliss excess in experiment [10] was -0.0108; in [11] it was 0.0436; in [12], -0.0512; in experiment [13], -0.066; with SK-MEL-1 (Melanoma) it was -0.022; in experiment [14], 0.0491. In addition, the results for the Bliss excess (in [15]; with Saos-2 (Osteosarcoma)) were -0.0246 and 0.0727, respectively.
`NC1(C(=O)N[C@@H](CCO)c2ccc(Cl)cc2)CCN(c2ncnc3[nH]ccc23)CC1` [Capivasertib] + CCN(CCO)CCCOc1ccc2c(Nc3cc(CC(=O)Nc4cccc(F)c4)[nH]n3)ncnc2c1 [AZD2811] (first compound max 10 µM, 7x7, partner max 1 µM): the Bliss excess was -0.051 in [1]; -0.0211 with CS1 (Chondrosarcoma); 0.0666 in experiment [2]; -0.0355 in experiment [3]; -0.012 in [4]; -0.0464 in experiment [5]. For the same compound, the Bliss excess in experiment [6] is -0.0428; in experiment [7], 0.0137; in the experiment with HCC38 (Breast Carcinoma), 0.0054; in [8], 0.0121; in experiment [9], -0.0285; with MCF7 (Breast Carcinoma), 0.0943. Besides, the Bliss excess in experiment [10] is -0.0484; in experiment [11], -0.0412; in experiment [12], -0.0663; in experiment [13], -0.0838; in the experiment with SK-MEL-1 (Melanoma) it was 0.0563; in [14], 0.0666. Besides, the Bliss excess in experiment [15] was -0.012; in the experiment on Saos-2 (Osteosarcoma) it was -0.0757.
In the case of `Cc1cc2ncnn2cc1Nc1ncc2c(n1)n(C1CCOCC1)c(=O)n2C` [AZD7648] + O=C(c1cc(Cc2n[nH]c(=O)c3ccccc23)ccc1F)N1CCN(C(=O)C2CC2)CC1 [Olaparib] (first compound max 10 µM, 7x7, partner max 10 µM), the Bliss excess was -0.0323 in experiment [1]; -0.0193 in the experiment with CS1 (Chondrosarcoma); -0.0398 in experiment [2]; -0.0334 in experiment [3]; 0.0223 in experiment [4]; -0.011 in [5]. Moreover, the Bliss excess is -0.028 in [6]; -0.0401 in experiment [7]; -0.0481 in the experiment with HCC38 (Breast Carcinoma); -0.036 in experiment [8]; -0.0144 in experiment [9]; -0.0625 in the experiment on MCF7 (Breast Carcinoma). In addition, the Bliss excess was -0.0086 in experiment [10]; -0.02 in experiment [11]; -0.0511 in experiment [12]; -0.0619 in [13]; 0.0039 in the experiment on SK-MEL-1 (Melanoma); -0.0331 in [14]. The values for the Bliss excess (in experiment [15]; in the experiment on Saos-2 (Osteosarcoma)) were -0.0471 and -0.0322, respectively.
Take `COc1nnc2ccc(N3CCC(c4ccc(OCCN5CCN(C)C(=O)[C@H]5C)cc4)CC3)nn12` [AZD5153] + C=CCn1c(=O)c2cnc(Nc3ccc(N4CCN(C)CC4)cc3)nc2n1-c1cccc(C(C)(C)O)n1 [AZD1775] (first compound max 1 µM, partner max 1 µM): the Bliss excess was -0.0493 in experiment [1]; -0.0172 with CS1 (Chondrosarcoma); -0.034 in experiment [2]; -0.0239 in experiment [3]; -0.0736 in experiment [4]; -0.0247 in experiment [5]. For the same compound, the Bliss excess in experiment [6] was 0.0237; in experiment [7] it was -0.0047; in the experiment on HCC38 (Breast Carcinoma) it was -0.107; in experiment [8], 0.0069; in [9], -0.0301; in the experiment with MCF7 (Breast Carcinoma), -0.0356. Further, the Bliss excess in experiment [10] is -0.0693; in [11], -0.0604; in experiment [12], -0.0392; in experiment [13] it was 0.0177; in the experiment with SK-MEL-1 (Melanoma), -0.0312; in [14], -0.0323. Further, the Bliss excess in experiment [15] was 0.0898; with Saos-2 (Osteosarcoma) it was -0.0011.
On to `CC1(C)CCC(CN2CCN(c3ccc(C(=O)NS(=O)(=O)c4ccc(NCC5CCOCC5)c([N+](=O)[O-])c4)c(Oc4cnc5[nH]ccc5c4)c3)CC2)=C(c2ccc(Cl)cc2)C1` [Venetoclax] + Cn1cnc2c(F)c(Nc3ccc(Br)cc3Cl)c(C(=O)NOCCO)cc21 [Selumetinib] (first compound max 1 µM, 7x7, partner max 3 µM), for which the Bliss excess in experiment [1] was 0.0138; with CS1 (Chondrosarcoma), -0.0498; in experiment [2] it was 0.009; in experiment [3] it was -0.0258; in experiment [4], -0.0333; in experiment [5] it was 0.0554. In addition, the Bliss excess in experiment [6] was -0.0212; in experiment [7], -0.0093; in the experiment on HCC38 (Breast Carcinoma), -0.0322; in [8] it was -0.0267; in experiment [9], -0.0338; with MCF7 (Breast Carcinoma), -0.058. For the same compound, the Bliss excess was -0.0242 in experiment [10]; -0.0333 in [11]; -0.0968 in experiment [12]; -0.079 in experiment [13]; -0.0332 in the experiment with SK-MEL-1 (Melanoma); 0.0043 in experiment [14]. The Bliss excess in experiment [15] was -0.0282; in the experiment with Saos-2 (Osteosarcoma), -0.0057.
As to `CN(C)CCCOc1ccc(-c2ccc3ncc4c(c3c2)n(C2CCOCC2)c(=O)n4C)cn1` [AZD0156] + C[C@@H]1COCCN1C2=NC(=NC(=C2)C3(CC3)[S@](=N)(=O)C)C4=C5C=CNC5=NC=C4 [AZD6738] (first compound max 1 µM, 7x7, partner max 10 µM), the Bliss excess is 0.0017 in experiment [1]; 0.0088 in the experiment on CS1 (Chondrosarcoma); 0.0357 in [2]; -0.0395 in [3]; 0.0294 in experiment [4]; -0.0439 in experiment [5]. Also, the Bliss excess in [6] is -0.003; in [7] it was 0.0323; in the experiment on HCC38 (Breast Carcinoma) it was -0.0689; in [8], 0.0261; in experiment [9] it was -0.0145; in the experiment with MCF7 (Breast Carcinoma), 0.0578. Moreover, the Bliss excess in experiment [10] was 0.0001; in experiment [11], -0.0004; in experiment [12], -0.0462; in experiment [13], -0.0129; with SK-MEL-1 (Melanoma), -0.0216; in experiment [14] it was 0.0126. Besides, the Bliss excess in [15] was 0.0138; in the experiment with Saos-2 (Osteosarcoma), -0.0133.
In the case of `Cc1cc2ncnn2cc1Nc1ncc2c(n1)n(C1CCOCC1)c(=O)n2C` [AZD7648] + CCN(CCO)CCCOc1ccc2c(Nc3cc(CC(=O)Nc4cccc(F)c4)[nH]n3)ncnc2c1 [AZD2811] (first compound max 10 µM, 7x7, partner max 1 µM), the Bliss excess was -0.0393 in experiment [1]; -0.0403 in the experiment with CS1 (Chondrosarcoma); 0.0609 in experiment [2]; 0.0123 in [3]; -0.0025 in experiment [4]; -0.036 in experiment [5]. Also, the Bliss excess is -0.0026 in [6]; -0.003 in experiment [7]; -0.0383 in the experiment on HCC38 (Breast Carcinoma); 0.0271 in experiment [8]; -0.0038 in experiment [9]; -0.0135 in the experiment with MCF7 (Breast Carcinoma). For the same compound, the Bliss excess is -0.0233 in experiment [10]; 0.0154 in experiment [11]; -0.017 in experiment [12]; 0.0069 in experiment [13]; -0.0162 in the experiment on SK-MEL-1 (Melanoma); 0.0407 in [14]. Further, the Bliss excess was found to be 0.0507 in experiment [15] and 0.0364 in the experiment with Saos-2 (Osteosarcoma).

For the origin of these results see the supplement of paper PMC11061612.
